Test results reported in ChEMBL document CHEMBL5331145, “Discovery of a Novel Bifunctional Steroid Analog, YXG-158, as an Androgen Receptor Degrader and CYP17A1 Inhibitor for the Treatment of Enzalutamide-Resistant Prostate Cancer” (J Med Chem, 2023).
Active and inactive are the calls of the source. The rule behind the calls is not given here.

Experiments:
LNCaP = assay: Antiproliferative activity against human LNCaP cells incubated for 6 days by CellTiter-Glo assay; type: functional, cell-based
[1] = target: T1, Androgen receptor (Homo sapiens) (UniProt P10275); assay: Potency index, ratio of galeterone DC50 to test compound DC50 for induction of androgen receptor degradation in human LNCaP cells; type: cell-based
T1 sequence (whole entry): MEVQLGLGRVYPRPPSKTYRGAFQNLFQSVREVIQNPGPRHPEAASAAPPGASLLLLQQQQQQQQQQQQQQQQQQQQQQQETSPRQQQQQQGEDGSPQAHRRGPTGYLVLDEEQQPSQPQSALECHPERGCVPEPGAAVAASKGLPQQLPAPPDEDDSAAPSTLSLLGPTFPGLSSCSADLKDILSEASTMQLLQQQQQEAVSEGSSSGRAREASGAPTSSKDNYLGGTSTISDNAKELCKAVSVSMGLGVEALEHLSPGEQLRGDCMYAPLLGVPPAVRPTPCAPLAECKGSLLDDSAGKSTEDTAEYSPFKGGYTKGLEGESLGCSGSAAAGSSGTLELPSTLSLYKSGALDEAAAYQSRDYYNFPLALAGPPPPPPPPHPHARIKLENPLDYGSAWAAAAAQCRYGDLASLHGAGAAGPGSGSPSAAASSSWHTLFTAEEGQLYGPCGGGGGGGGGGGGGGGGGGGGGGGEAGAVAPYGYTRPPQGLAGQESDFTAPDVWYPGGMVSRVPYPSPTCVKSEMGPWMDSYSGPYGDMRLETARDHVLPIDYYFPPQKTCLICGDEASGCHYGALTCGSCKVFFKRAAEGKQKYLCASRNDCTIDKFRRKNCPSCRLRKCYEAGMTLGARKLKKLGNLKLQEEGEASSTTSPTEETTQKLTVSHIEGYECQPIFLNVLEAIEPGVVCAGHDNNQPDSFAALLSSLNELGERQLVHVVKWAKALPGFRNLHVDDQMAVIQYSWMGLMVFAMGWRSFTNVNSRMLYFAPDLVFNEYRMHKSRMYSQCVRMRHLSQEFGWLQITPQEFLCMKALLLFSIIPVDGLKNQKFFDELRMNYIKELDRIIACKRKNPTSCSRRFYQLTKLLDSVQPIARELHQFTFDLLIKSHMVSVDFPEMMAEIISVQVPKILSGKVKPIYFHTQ

Androgen receptor = target: T2, Androgen receptor (Homo sapiens, UniProt P10275); assay: Induction of androgen receptor degradation in human LNCaP cells incubated for 24 hrs by ELISA; type: cell-based
T2 sequence (P10275 whole entry): T1 sequence (whole entry)

[2] = target: Voltage-gated inwardly rectifying potassium channel KCNH2 (Homo sapiens, UniProt Q12809); assay: Inhibition of human ERG by patch clamp assay; type: toxicity
Voltage-gated inwardly rectifying potassium channel KCNH2, sequence (Q12809 whole entry): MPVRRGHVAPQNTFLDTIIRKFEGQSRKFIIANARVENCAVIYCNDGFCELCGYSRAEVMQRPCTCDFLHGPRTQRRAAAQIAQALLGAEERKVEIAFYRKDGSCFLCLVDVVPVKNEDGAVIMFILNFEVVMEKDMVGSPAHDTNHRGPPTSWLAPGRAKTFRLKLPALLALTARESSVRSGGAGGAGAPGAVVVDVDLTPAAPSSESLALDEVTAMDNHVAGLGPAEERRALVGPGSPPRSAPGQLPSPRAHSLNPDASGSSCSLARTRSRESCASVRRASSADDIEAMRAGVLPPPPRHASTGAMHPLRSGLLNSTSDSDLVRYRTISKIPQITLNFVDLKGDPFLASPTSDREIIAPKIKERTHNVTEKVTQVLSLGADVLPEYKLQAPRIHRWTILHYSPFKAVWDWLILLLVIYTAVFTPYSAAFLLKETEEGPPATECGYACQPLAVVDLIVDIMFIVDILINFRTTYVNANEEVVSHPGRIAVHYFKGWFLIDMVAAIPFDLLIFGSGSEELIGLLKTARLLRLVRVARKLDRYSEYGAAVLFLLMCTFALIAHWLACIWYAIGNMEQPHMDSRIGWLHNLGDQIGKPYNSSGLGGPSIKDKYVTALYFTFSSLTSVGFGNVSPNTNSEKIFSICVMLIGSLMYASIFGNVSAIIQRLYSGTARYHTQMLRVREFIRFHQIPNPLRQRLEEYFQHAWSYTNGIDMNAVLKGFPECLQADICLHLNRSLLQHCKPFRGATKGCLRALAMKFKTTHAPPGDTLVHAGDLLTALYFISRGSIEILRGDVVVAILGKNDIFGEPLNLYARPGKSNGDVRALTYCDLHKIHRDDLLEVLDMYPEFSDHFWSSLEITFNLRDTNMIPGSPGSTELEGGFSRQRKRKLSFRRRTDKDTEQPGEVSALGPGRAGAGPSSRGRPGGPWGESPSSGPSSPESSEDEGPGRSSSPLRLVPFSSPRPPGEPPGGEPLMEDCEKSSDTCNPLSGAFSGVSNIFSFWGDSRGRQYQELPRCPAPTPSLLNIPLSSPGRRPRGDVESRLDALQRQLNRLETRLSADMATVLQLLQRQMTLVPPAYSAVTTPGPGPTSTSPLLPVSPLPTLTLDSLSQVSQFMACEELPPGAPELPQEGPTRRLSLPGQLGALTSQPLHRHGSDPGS

LNCaP/AR = assay: Antitumor activity against human LNCaP/AR cells xenografted in SCID male mouse assessed as tumor growth inhibition at 30 mg/kg, po administered once daily for 28 days and measured every 3 days; type: functional, organism-based; settings: time 28.0 day
Mus musculus = assay: In vivo induction of androgen receptor in human LNCaP/AR cells xenografted in SCID mouse assessed as reduction in PSA level at 10 to 30 mg/kg, po administered once daily for 28 days by ELISA; type: functional, organism-based; settings: dose 10-30 mg/kg, time 28.0 day
[3] = target: T1, Androgen receptor (Homo sapiens); assay: Induction of androgen receptor degradation in human LNCaP cells at 20 uM incubated for 24 hrs; type: cell-based
[4] = target: T1, Androgen receptor (Homo sapiens); assay: Induction of androgen receptor degradation in human LNCaP cells incubated for 24 hrs by Western blot analysis; type: cell-based; settings: dose 1-20 µM
[5] = target: T1, Androgen receptor (Homo sapiens); assay: Induction of androgen receptor degradation in human 22Rv1 cells incubated for 24 hrs by Western blot analysis; type: cell-based; settings: dose 1-20 µM
[6] = tested on: Androgen receptor (Homo sapiens), P10275 [F877L]; assay: Antagonist activity at androgen receptor F876L mutant expressed in HEK293 cells assessed as reduction in DHT-induced transcriptional activation of androgen receptor incubated for 24 hrs by Steady-Glo assay relative to control; type: cell-based; parameters: scale not given: the % may be the effect or the level left; settings: filed as antagonist
Androgen receptor (Homo sapiens), P10275 [F877L], sequence (P10275 whole entry F877L): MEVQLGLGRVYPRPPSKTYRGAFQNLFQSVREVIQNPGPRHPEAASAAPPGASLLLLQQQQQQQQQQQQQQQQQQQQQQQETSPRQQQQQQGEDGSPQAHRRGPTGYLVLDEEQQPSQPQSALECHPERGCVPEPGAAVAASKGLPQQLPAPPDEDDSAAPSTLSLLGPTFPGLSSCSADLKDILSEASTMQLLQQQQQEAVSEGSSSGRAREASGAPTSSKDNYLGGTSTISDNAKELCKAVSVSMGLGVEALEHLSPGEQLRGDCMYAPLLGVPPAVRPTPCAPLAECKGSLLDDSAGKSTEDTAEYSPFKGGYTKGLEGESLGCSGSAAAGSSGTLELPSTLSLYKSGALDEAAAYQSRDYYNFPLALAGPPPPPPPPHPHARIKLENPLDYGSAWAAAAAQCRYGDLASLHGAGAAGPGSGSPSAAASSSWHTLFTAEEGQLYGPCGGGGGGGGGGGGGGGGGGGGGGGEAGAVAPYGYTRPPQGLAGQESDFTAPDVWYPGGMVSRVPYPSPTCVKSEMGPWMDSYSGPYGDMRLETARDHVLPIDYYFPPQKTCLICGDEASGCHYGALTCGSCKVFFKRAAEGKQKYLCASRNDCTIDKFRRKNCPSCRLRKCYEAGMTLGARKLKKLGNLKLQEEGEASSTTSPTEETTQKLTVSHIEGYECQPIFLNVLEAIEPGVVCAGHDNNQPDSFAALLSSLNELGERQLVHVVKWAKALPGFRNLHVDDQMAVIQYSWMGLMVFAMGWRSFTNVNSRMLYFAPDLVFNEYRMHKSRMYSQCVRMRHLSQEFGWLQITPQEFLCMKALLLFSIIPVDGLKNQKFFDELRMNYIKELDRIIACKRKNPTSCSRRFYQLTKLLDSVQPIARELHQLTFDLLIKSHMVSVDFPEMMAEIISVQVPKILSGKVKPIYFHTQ

[7] = target: Androgen receptor (Homo sapiens) (UniProt P10275); assay: In vivo induction of androgen receptor in human LNCaP/AR cells xenografted in SCID mouse assessed as reduction in AR protein level at 10 mg/kg, po administered once daily for 28 days by ELISA; parameters: scale not given: the % may be the effect or the level left; settings: time 28.0 day
LNCaP C4-2B = assay: Antitumor activity against enzalutamide resistant human LNCaP C4-2B cells xenografted in BALB/c mouse assessed as tumor growth suppression at 10 mg/kg, po administered once daily for 28 days and measured every 3 days; type: functional, organism-based; settings: time 28.0 day
22Rv1 = assay: Induction of androgen receptor splice variant 7 degradation in human 22Rv1 cells at 1 to 20 uM incubated for 24 hrs by Western blot analysis; type: cell-based; settings: dose 1-20 µM
[8] = target: T1, Androgen receptor (Homo sapiens); assay: Induction of androgen receptor degradation in human LNCaP cells assessed as reduction in AR mRNA level incubated for 24 hrs by qPCR analysis; type: cell-based; settings: dose 1-20 µM
[9] = target: T1, Androgen receptor (Homo sapiens); assay: Induction of androgen receptor degradation in human VCaP cells incubated for 24 hrs by Western blot analysis; type: cell-based; settings: dose 1-20 µM
[10] = target: Androgen receptor (Homo sapiens) (UniProt P10275); assay: In vivo induction of androgen receptor in human LNCaP/AR cells xenografted in SCID mouse assessed as reduction in AR protein level at 30 mg/kg, po administered once daily for 28 days by ELISA; parameters: scale not given: the % may be the effect or the level left; settings: time 28.0 day
[11] = target: T1, Androgen receptor (Homo sapiens); assay: Induction of androgen receptor degradation in human LNCaP cells at 20 uM incubated for 24 hrs in presence of MG-132; type: cell-based

Cc1cn(C2=CCC3C4CC=C5C[C@@H](NC(=O)c6ccncc6F)CC[C@]5(C)C4CC[C@]23C)cn1 (stereo partly specified)
IC50 (LNCaP): 0.753 µM
Ratio [1]: 2.5
EC50 (Androgen receptor): 5.72 µM
IC50 [2]: > 40 µM

CC(C)(C)c1cn(C2=CCC3C4CC=C5C[C@@H](NC(=O)c6ccnnc6)CC[C@]5(C)C4CC[C@]23C)cn1 (stereo partly specified)
IC50 (LNCaP): 1.11 µM

COc1cn(C2=CCC3C4CC=C5C[C@@H](NC(=O)c6ccncc6)CC[C@]5(C)C4CC[C@]23C)cn1 (stereo partly specified)
IC50 (LNCaP): 0.436 µM
IC50 [2]: 4.07 µM

Cc1cn(C2=CCC3C4CC=C5C[C@@H](NC(=O)c6ccc(F)cc6)CC[C@]5(C)C4CC[C@]23C)cn1 (stereo partly specified)
Activity (LNCaP/AR): Active
Activity (Mus musculus): Active
Activity [3]: Active
Activity [4]: Dose-Dependent Effect
Activity [5]: Dose-Dependent Effect
Activity [6]: 68%
Activity [7]: 40%
Activity (LNCaP C4-2B): inactive
Activity (22Rv1): Active
Activity [8]: Dose-Dependent Effect
Activity [9]: Dose-Dependent Effect
Activity [10]: 52%
Activity [11]: inactive

C[C@]12CC[C@H](NC(=O)c3ccnnc3)CC1=CCC1C2CC[C@]2(C)C(n3cnc(C(F)(F)F)c3)=CCC12 (stereo partly specified)
IC50 (LNCaP): 0.819 µM

COc1cn(C2=CCC3C4CC=C5C[C@@H](NC(=O)c6ccnnc6)CC[C@]5(C)C4CC[C@]23C)cn1 (stereo partly specified)
IC50 (LNCaP): 0.475 µM
Ratio [1]: 2.5
EC50 (Androgen receptor): 3.88 µM
IC50 [2]: 856 µM

CC(C)c1cn(C2=CCC3C4CC=C5C[C@@H](NC(=O)c6ccnnc6)CC[C@]5(C)C4CC[C@]23C)cn1 (stereo partly specified)
IC50 (LNCaP): 0.958 µM
IC50 [2]: > 40 µM

C[C@]12CC[C@H](NC(=O)c3ccnnc3)CC1=CCC1C2CC[C@]2(C)C(n3cnc(F)c3)=CCC12 (stereo partly specified)
IC50 (LNCaP): 2.35 µM

COc1ccc(C(=O)N[C@H]2CC[C@@]3(C)C(=CCC4C3CC[C@]3(C)C(n5cnc(C)c5)=CCC43)C2)cc1 (stereo partly specified)
IC50 (LNCaP): > 10 µM

CCc1cn(C2=CCC3C4CC=C5C[C@@H](NC(=O)c6ccnnc6)CC[C@]5(C)C4CC[C@]23C)cn1 (stereo partly specified)
IC50 (LNCaP): 0.427 µM
IC50 [2]: 6.58 µM

CC(C)c1cn(C2=CCC3C4CC=C5C[C@@H](NC(=O)c6ccncc6)CC[C@]5(C)C4CC[C@]23C)cn1 (stereo partly specified)
IC50 (LNCaP): 0.735 µM
Ratio [1]: 2.5
EC50 (Androgen receptor): 4.76 µM
IC50 [2]: 15 µM

C[C@]12CC[C@H](NC(=O)c3ccnnc3)CC1=CCC1C2CC[C@]2(C)C(n3cnc([N+](=O)[O-])c3)=CCC12 (stereo partly specified)
IC50 (LNCaP): 0.418 µM
Ratio [1]: 2.5
EC50 (Androgen receptor): 3.31 µM
IC50 [2]: > 40 µM

CC(=O)c1cn(C2=CCC3C4CC=C5C[C@@H](NC(=O)c6ccnnc6)CC[C@]5(C)C4CC[C@]23C)cn1 (stereo partly specified)
IC50 (LNCaP): 1.38 µM

C[C@]12CC[C@H](NC(=O)c3ccnnc3)CC1=CCC1C2CC[C@]2(C)C(n3cnc(Cl)c3)=CCC12 (stereo partly specified)
IC50 (LNCaP): 0.608 µM
IC50 [2]: 24.6 µM

Cc1cn(C2=CCC3C4CC=C5C[C@@H](NC(=O)c6ccc([N+](=O)[O-])cc6)CC[C@]5(C)C4CC[C@]23C)cn1 (stereo partly specified)
IC50 (LNCaP): 0.595 µM
Ratio [1]: 2.5
EC50 (Androgen receptor): 2.6 µM
IC50 [2]: > 40 µM
